PubChem BioAssay AID250 (DTP/NCI, 2004)
Toxic doses and inconclusive results are not listed.

Tested on: BDF1 mice, L1210 leukemia sc, survival T/C
Test: NCI In Vivo Anticancer Drug Screen. Data for tumor model L1210 Leukemia (subcutaneous) in B6D2F1 (BDF1) mice
Settings: endpoint: median survival time, higher = longer survival
Procedure, shortened: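 Expressed as T/C: measurement in compound-treated, tumor-bearing mice relative to vehicle-treated control mice, based on survival or tumor size.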

[1] = dose: 108.0 mg/kg/injection, schedule: Q01DX Z (sc), vehicle: methylcellulose (MC)
[2] = dose: 65.0 mg/kg/injection, schedule: Q01DX Z (sc), vehicle: saline
[3] = dose: 108.0 mg/kg/injection, schedule: Q01DX Z (sc), vehicle: saline

For `C[n+]1ccc(Nc2ccc(NC(=O)c3ccc(Nc4cc[n+](C)c5ccc(N)cc45)cc3N)cc2)cc1`, the T/C (dose: 0.5 mg/kg/injection, schedule: Q03HX024 (ip), vehicle: water) was 111 % of control, the T/C (dose: 1.0 mg/kg/injection, schedule: Q01DX009 (ip), vehicle: water) was 116 % of control and the T/C (dose: 2.0 mg/kg/injection, schedule: Q01DX009 (ip), vehicle: water) was 155 % of control. For the same compound, the T/C (dose: 2.0 mg/kg/injection, schedule: Q01DX009 (sc), vehicle: water) was 110 % of control, the T/C (dose: 2.0 mg/kg/injection, schedule: Q03HX024 (ip), vehicle: water) was 183 % of control and the T/C (dose: 4.0 mg/kg/injection, schedule: Q01DX009 (ip), vehicle: water) was 233 % of control. The T/C (dose: 4.0 mg/kg/injection, schedule: Q01DX009 (sc), vehicle: water) was 170 % of control, the T/C (dose: 4.0 mg/kg/injection, schedule: Q03HX008 (sc), vehicle: water) was 120 % of control and the T/C (dose: 4.0 mg/kg/injection, schedule: Q03HX024 (ip), vehicle: water) was 288 % of control. The T/C (dose: 4.0 mg/kg/injection, schedule: Q03HX024 (sc), vehicle: water) was 165 % of control, the T/C (dose: 8.0 mg/kg/injection, schedule: Q01DX009 (ip), vehicle: water) was 194 % of control and the T/C (dose: 8.0 mg/kg/injection, schedule: Q01DX009 (sc), vehicle: water) was 225 % of control. The T/C (dose: 8.0 mg/kg/injection, schedule: Q03HX024 (ip), vehicle: water) was 188 % of control, the T/C (dose: 8.0 mg/kg/injection, schedule: Q03HX024 (sc), vehicle: water) was 220 % of control and the T/C (dose: 8.0 mg/kg/injection, schedule: Q04DX003 (sc), vehicle: water) was 100 % of control. For the same compound, the T/C (dose: 16.0 mg/kg/injection, schedule: Q01DX001 (sc), vehicle: water) was 110 % of control, the T/C (dose: 16.0 mg/kg/injection, schedule: Q01DX009 (ip), vehicle: water) was 177 % of control and the T/C (dose: 16.0 mg/kg/injection, schedule: Q01DX009 (sc), vehicle: water) was 270 % of control. For the same compound, the T/C (dose: 16.0 mg/kg/injection, schedule: Q03HX008 (sc), vehicle: water) was 235 % of control, the T/C (dose: 16.0 mg/kg/injection, schedule: Q03HX024 (sc), vehicle: water) was 155 % of control and the T/C (dose: 32.0 mg/kg/injection, schedule: Q01DX009 (sc), vehicle: water) was 180 % of control. For the same compound, the T/C (dose: 32.0 mg/kg/injection, schedule: Q03HX008 (sc), vehicle: water) was 210 % of control, the T/C (dose: 32.0 mg/kg/injection, schedule: Q03HX024 (sc), vehicle: water) was 100 % of control and the T/C (dose: 32.0 mg/kg/injection, schedule: Q04DX003 (sc), vehicle: water) was 205 % of control. For the same compound, the T/C (dose: 64.0 mg/kg/injection, schedule: Q01DX001 (sc), vehicle: water) was 215 % of control, the T/C (dose: 64.0 mg/kg/injection, schedule: Q04DX003 (sc), vehicle: water) was 260 % of control and the T/C (dose: 128.0 mg/kg/injection, schedule: Q01DX001 (sc), vehicle: water) was 240 % of control. For the same compound, the T/C (dose: 128.0 mg/kg/injection, schedule: Q04DX003 (sc), vehicle: water) was 245 % of control.

For `Nc1ncc(N)c(N)n1`, the T/C (dose: 39.0 mg/kg/injection, schedule: Q01DX Z (sc), vehicle: methylcellulose (MC)) was 100 % of control, the T/C (dose: 65.0 mg/kg/injection, schedule: Q01DX Z (sc), vehicle: carboxymethylcellulose (CMC)) was 100 % of control and the T/C (dose: 65.0 mg/kg/injection, schedule: Q01DX Z (sc), vehicle: methylcellulose (MC)) was 100 % of control. The T/C (dose: 108.0 mg/kg/injection, schedule: Q01DX Z (sc), vehicle: carboxymethylcellulose (CMC)) was 107 % of control, the T/C [1] was 100 % of control and the T/C (dose: 180.0 mg/kg/injection, schedule: Q01DX Z (sc), vehicle: carboxymethylcellulose (CMC)) was 100 % of control. For the same compound, the T/C (dose: 180.0 mg/kg/injection, schedule: Q01DX Z (sc), vehicle: methylcellulose (MC)) was 100 % of control, the T/C (dose: 300.0 mg/kg/injection, schedule: Q01DX Z (sc), vehicle: carboxymethylcellulose (CMC)) was 100 % of control and the T/C (dose: 300.0 mg/kg/injection, schedule: Q01DX Z (sc), vehicle: methylcellulose (MC)) was 100 % of control. The T/C (dose: 500.0 mg/kg/injection, schedule: Q01DX Z (sc), vehicle: carboxymethylcellulose (CMC)) was 100 % of control.

`COC(=O)c1[nH]cnc1/N=N/N(C)C` was tested, and the T/C (dose: 14.0 mg/kg/injection, schedule: Q01DX Z (sc), vehicle: saline) was 109 % of control, the T/C (dose: 23.0 mg/kg/injection, schedule: Q01DX Z (sc), vehicle: saline) was 100 % of control and the T/C (dose: 39.0 mg/kg/injection, schedule: Q01DX Z (sc), vehicle: saline) was 109 % of control. For the same compound, the T/C [2] was 104 % of control and the T/C [3] was 159 % of control.

In the case of `[N-]=[N+]=CC(=O)NCC(=O)NN`, the T/C [2] was 90 % of control, the T/C [3] was 100 % of control and the T/C (dose: 180.0 mg/kg/injection, schedule: Q01DX Z (sc), vehicle: saline) was 100 % of control. The T/C (dose: 300.0 mg/kg/injection, schedule: Q01DX Z (sc), vehicle: saline) was 100 % of control, the T/C (dose: 500.0 mg/kg/injection, schedule: Q01DX Z (sc), vehicle: saline) was 100 % of control and the T/C (dose: 833.0 mg/kg/injection, schedule: Q01DX Z (sc), vehicle: saline) was 107 % of control.

With `CCC(C)SC1=NC=NC2=NC=NC21` (stereo not drawn) the T/C (dose: 38.9 mg/kg/injection, schedule: Q01DX Z (sc), vehicle: methylcellulose (MC)) was 109 % of control, the T/C [1] was 150 % of control and the T/C (dose: 500.0 mg/kg/injection, schedule: Q01DX Z (sc), vehicle: methylcellulose (MC)) was 100 % of control. The T/C (dose: 833.0 mg/kg/injection, schedule: Q01DX Z (sc), vehicle: methylcellulose (MC)) was 100 % of control.
